Assay results: patent publication US7511061B2, “Triazoles as farnesyl transferase inhibitors” (Janssen Pharmaceutica N.V., priority 1999, dated 2009)
pIC50: −log10 of the molar value.

Tests used:
[1] = tested on: Respiratory Syncytial Virus; test: In vitro screening for activity against Respiratory Syncytial Virus (MTT assay, protection against cytopathology); format: cell-based; conditions: for SI (selectivity index, CC50 divided by IC50): RSV, HeLa cells; for pIC50: human respiratory syncytial virus, 168 h, RSV-infected HeLa cells, seven days after infection, MTT, read-out: IC50 (antiviral activity)
From the text: (§1) The percent protection against cytopathology caused by viruses (antiviral activity or IC50) achieved by tested compounds and their cytotoxicity (CC50) were both calculated from dose-response curves. The selectivity of the antiviral effect is represented by the selectivity index (SI), calculated by dividing the CC50 (cytotoxic dose for 50% of the cells) by the IC50 (antiviral activity for 50% of the cells).
(§2) Automated tetrazolium-based […] assays were used for determination of IC50 and CC50 of test compounds. Flat-bottom, 96-well plastic microtiter trays were filled with 180 μl of Eagle's Basal Medium, supplemented with 5% FCS (0% for FLU) and 20 mM Hepes buffer. Subsequently, stock solutions (7.8× final test concentration) of compounds were added in 45 μl volumes to a series of triplicate wells so as to allow simultaneous evaluation of their effects on virus- and mock-infected cells. Five five-fold dilutions were made directly in the microtiter trays using a robot system. Untreated virus controls, and HeLa cell controls were included in each test. Approximately 100 TCID50 of Respiratory Syncytial Virus was added to two of the three rows in a volume of 50 μl. The same volume of medium was added to the third row to measure the cytotoxicity of the compounds at the same concentrations as those used to measure the antiviral activity. After two hours of incubation, a suspension (4×10^5 cells/ml) of HeLa cells was added to all wells in a volume of 50 μl. The cultures were incubated at 37° C. in a 5% CO2 atmosphere. Seven days after infection the cytotoxicity and the antiviral activity was examined spectrophotometrically. To each well of the microtiter tray, 25 μl of a solution of MTT (3-(4,5-dimethylthiazol-2-yl)-2,5-diphenyltetrazolium bromide) was added. The trays were further incubated at 37° C. for 2 hours, after which the medium was removed from each cup. Solubilization of the formazan crystals was achieved by adding 100 μl 2-propanol. Complete dissolution of the formazan crystals were obtained after the trays have been placed on a plate shaker for 10 min. Finally, the absorbances were read in an eight-channel computer-controlled photometer (Multiskan MCC, Flow Laboratories) at two wavelengths (540 and 690 nm). The absorbance measured at 690 nm was automatically subtracted from the absorbance at 540 nm, so as to eliminate the effects of non-specific absorption.

[2] = tested on: HeLa cells; format: cell-based; conditions: human, 7 days
From the text: as §1, §2

[3] = biological target: farnesyl protein transferase (FPTase) (Homo sapiens, UniProt P49354+P49356); test: In vitro assay for inhibition of farnesyl protein transferase; format: biochemical; conditions: test dose of 10^−7 M
Description: An in vitro assay for inhibition of farnesyl transferase was performed essentially as described in WO 98/40383, pages 33-34.

| inhibition at 0.1 µM [3] | SMILES | further results |
| --- | --- | --- |
| – | COC(=O)c1ccc(Cn2cnnc2CN(CCc2ccc(Br)cc2)Cc2ccc3ccccc3n2)cc1 [compound 90] | SI (selectivity index, CC50 divided by IC50) [1]: 1988; pIC50 [1]: 7.59; CC50 (cytotoxic dose for 50% of the cells) [2]: 7590 nM |
| – | Fc1ccc(Cn2cnnc2CN(CCc2ccc(Br)cc2)Cc2ccc3ccccc3n2)cc1 [compound 97] | SI (selectivity index, CC50 divided by IC50) [1]: 322; pIC50 [1]: 7.10; CC50 (cytotoxic dose for 50% of the cells) [2]: 7100 nM |
| – | Cc1ccc(CCN(Cc2ccc3ccccc3n2)Cc2nncn2Cc2ccc(C#N)cc2)cc1 [compound 46] | SI (selectivity index, CC50 divided by IC50) [1]: 758; pIC50 [1]: 7.06; CC50 (cytotoxic dose for 50% of the cells) [2]: 7060 nM |
| ≥ 10% | N#Cc1ccc(Cn2cnnc2CN(Cc2ccc(F)cc2F)C(=O)/C=C/c2cccc(Br)c2)cc1 [compound 241] | – |
| ≥ 10% | N#Cc1ccc(Cn2cnnc2CN(C(=O)c2ccc3ccccc3n2)c2ccc(Oc3ccccc3)cc2)cc1 [compound 256] | – |
| ≥ 10% | N#Cc1ccc(Cn2cnnc2CN(Cc2ccccc2OC(F)(F)F)C(=O)c2ccc3ccccc3n2)cc1 [compound 280] | – |
| ≥ 10% | Cc1ccc(C)c(/C=C/C(=O)N(Cc2ccc(F)cc2F)Cc2nncn2Cc2ccc(C#N)cc2)c1 [compound 225] | – |
| ≥ 10% | N#Cc1ccc(Cn2cnnc2CN(Cc2cccc(F)c2F)C(=O)c2ccc3ccccc3n2)cc1 [compound 307] | – |
| ≥ 10% | N#Cc1ccc(Cn2cnnc2CN(CCSCc2c(F)cccc2Cl)C(=O)c2ccc3ccccc3n2)cc1 [compound 271] | – |
| ≥ 10% | N#Cc1ccc(Cn2cnnc2CN(c2ccc(Oc3ccccc3)cc2)c2nccc(C(F)(F)F)n2)cc1 [compound 257] | – |
| ≥ 10% | N#Cc1ccc(Cn2cnnc2CN(Cc2ccc(F)cc2F)C(=O)c2ccc3ccccc3n2)nc1 [compound 295] | – |
| ≥ 10% | N#Cc1ccc(Cn2cnnc2CN(Cc2ccccc2Cl)C(=O)c2ccc3ccccc3n2)cc1 [compound 294] | – |
| ≥ 10% | N#Cc1ccc(Cn2cnnc2CN(Cc2ccc(F)cc2F)C(=O)c2ccc(Br)o2)cc1 [compound 229] | – |
| – | Brc1ccc(CCN(Cc2ccc3ccccc3n2)Cc2nncn2Cc2ccc(Br)cc2)cc1 [compound 92] | SI (selectivity index, CC50 divided by IC50) [1]: 147; pIC50 [1]: 6.82; CC50 (cytotoxic dose for 50% of the cells) [2]: 6820 nM |
| ≥ 10% | N#Cc1ccc(Cn2cnnc2CN(CCC(c2ccccc2)c2ccccc2)C(=O)C2CCN(S(=O)(=O)c3ccc(F)cc3)CC2)cc1 [compound 261] | – |
| ≥ 10% | Cc1ccc(C(=O)N(Cc2ccc(F)cc2F)Cc2nncn2Cc2ccc(C#N)cc2)cc1-c1cc(Cl)cc(Cl)c1 [compound 308] | – |
| – | N#Cc1ccc(Cn2cnnc2CN(CCc2ccc(Cl)cc2Cl)Cc2ccc3ccccc3n2)cc1 [compound 114] | SI (selectivity index, CC50 divided by IC50) [1]: 337; pIC50 [1]: 6.93; CC50 (cytotoxic dose for 50% of the cells) [2]: 6930 nM |
| ≥ 10% | N#Cc1ccc(Cn2cnnc2CN(CCc2ccc(Br)cc2)C(=O)c2ccc3ccccc3c2)cc1 [compound 265] | – |
| ≥ 10% | N#Cc1ccc(Cn2cnnc2CN(Cc2ccccc2)C(=O)c2ccc3ccccc3n2)cc1 [compound 232] | – |
| ≥ 10% | N#Cc1ccc(Cn2cnnc2CN(Cc2ccc(F)cc2F)C(=O)c2ccc(OC(F)(F)F)c(Cl)c2)cc1 [compound 293] | – |
| – | Brc1ccc(CCN(Cc2ccc3ccccc3n2)Cc2nncn2Cc2ccccc2)cc1 [compound 101] | SI (selectivity index, CC50 divided by IC50) [1]: 196; pIC50 [1]: 6.89; CC50 (cytotoxic dose for 50% of the cells) [2]: 6890 nM |
| ≥ 10% | N#Cc1ccc(Cn2cnnc2CN(Cc2ccc(F)cc2F)C(=O)/C=C/c2cc(F)cc(C(F)(F)F)c2)cc1 [compound 245] | – |
| ≥ 10% | N#Cc1ccc(Cn2cnnc2CN(Cc2ccc(F)cc2F)C(=O)c2cc3ccccc3oc2=O)cc1 [compound 252] | – |
| ≥ 10% | N#Cc1ccc(Cn2cnnc2CN(Cc2cc(C(F)(F)F)cc(C(F)(F)F)c2)C(=O)c2ccc3ccccc3n2)cc1 [compound 226] | – |
| ≥ 10% | N#Cc1ccc(Cn2cnnc2CN(Cc2ccccc2F)C(=O)c2ccc3ccccc3n2)cc1 [compound 306] | – |

| inhibition at 0.1 µM [3] | SMILES | further results |
| --- | --- | --- |
| ≥ 10% | N#Cc1ccc(Cn2cnnc2CN(Cc2ccc(C(F)(F)F)cc2)C(=O)c2ccc3ccccc3n2)cc1 [compound 302] | – |
| ≥ 10% | Cc1ccc(C(=O)N(Cc2ccc(F)cc2F)Cc2nncn2Cc2ccc(C#N)cc2)cc1-c1ccc(F)c(Cl)c1 [compound 224] | – |
| ≥ 10% | N#Cc1ccc(Cn2cnnc2CN(Cc2ccc(F)cc2F)C(=O)c2cccc(Br)n2)cc1 [compound 285] | – |
| ≥ 10% | N#Cc1ccc(Cn2cnnc2CN(Cc2ccc(F)cc2F)C(=O)/C=C/c2cccc(C(F)(F)F)c2)cc1 [compound 231] | – |
| ≥ 10% | N#Cc1ccc(Cn2cnnc2CN(CCc2ccc(F)cc2)C(=O)c2ccc3ccccc3n2)cc1 [compound 276] | – |
| – | Clc1ccc(Cn2cnnc2CN(CCc2ccc(Br)cc2)Cc2ccc3ccccc3n2)cc1 [compound 157] | SI (selectivity index, CC50 divided by IC50) [1]: 272; pIC50 [1]: 7.03; CC50 (cytotoxic dose for 50% of the cells) [2]: 7030 nM |
| ≥ 10% | N#Cc1ccc(Cn2cnnc2CN(Cc2ccc(F)cc2F)C(=O)c2cccc(Cl)n2)cc1 [compound 279] | – |
| ≥ 10% | N#Cc1ccc(Cn2cnnc2CN(Cc2ccc(F)cc2F)C(=O)c2ccc3ccccc3n2)cc1 [compound 300] | – |
| ≥ 10% | Cc1cccc(Cc2nnc(CN(c3ccc(Oc4ccccc4)cc3)S(=O)(=O)c3ccc(-c4ccc(F)c(Cl)c4)cc3C)n2Cc2cccc(C)n2)n1 [compound 230] | – |
| – | N#Cc1ccc(Cn2cnnc2CN(CCc2ccc(Br)cc2)Cc2ccc3cccc(O)c3n2)cc1 [compound 155] | SI (selectivity index, CC50 divided by IC50) [1]: 99; pIC50 [1]: 6.80; CC50 (cytotoxic dose for 50% of the cells) [2]: 6800 nM |
| ≥ 10% | Cc1ccc(C(=O)N(Cc2ccc(F)cc2F)Cc2nncn2Cc2ccc(C#N)cc2)cc1C [compound 262] | – |
| – | N#Cc1cccc(Cn2cnnc2CN(CCc2ccc(Br)cc2)Cc2ccc3ccccc3n2)c1 [compound 102] | SI (selectivity index, CC50 divided by IC50) [1]: 793; pIC50 [1]: 7.08; CC50 (cytotoxic dose for 50% of the cells) [2]: 7080 nM |
| ≥ 10% | N#Cc1ccc(Cn2cnnc2CN(Cc2ccco2)C(=O)c2ccc3ccccc3n2)cc1 [compound 247] | – |
| ≥ 10% | N#Cc1ccc(Cn2cnnc2CN(Cc2c(F)ccc(F)c2F)c2ccc(Oc3ccccc3)cc2)cc1 [compound 238] | – |
| ≥ 10% | N#Cc1ccc(Cn2cnnc2CN(Cc2ccc(F)cc2F)C(=O)c2cccc(-c3ccccc3C(F)(F)F)c2)cc1 [compound 259] | – |
| ≥ 10% | N#Cc1ccc(Cn2cnnc2CN(Cc2ccc(F)cc2F)C(=O)c2cc3ccccc3s2)cc1 [compound 270] | – |
| ≥ 10% | Cc1ccccc1-c1cc(C(=O)N(Cc2ccc(F)cc2F)Cc2nncn2Cc2ccc(C#N)cc2)ccc1C [compound 260] | – |
| ≥ 10% | N#Cc1ccc(Cn2cnnc2CN(Cc2ccc(Cl)c(Cl)c2)C(=O)c2ccc3ccccc3n2)cc1 [compound 286] | – |
| ≥ 10% | Cc1ccc(C(=O)N(Cc2ccc(F)cc2F)Cc2nncn2Cc2ccc(C#N)cc2)cc1-c1ccsc1 [compound 288] | – |
| ≥ 10% | Cc1cccc(/C=C/C(=O)N(Cc2ccc(F)cc2F)Cc2nncn2Cc2ccc(C#N)cc2)c1 [compound 254] | – |
| ≥ 10% | COc1ccccc1/C=C/C(=O)N(Cc1ccc(F)cc1F)Cc1nncn1Cc1ccc(C#N)cc1 [compound 267] | – |
| ≥ 10% | Cc1ccccc1-c1cccc(C(=O)N(Cc2ccc(F)cc2F)Cc2nncn2Cc2ccc(C#N)cc2)c1 [compound 242] | – |
| ≥ 10% | C/C(=C\c1ccccc1)C(=O)N(Cc1ccc(F)cc1F)Cc1nncn1Cc1ccc(C#N)cc1 [compound 282] | – |
| ≥ 10% | Cc1nnc(CN(Cc2ccc(F)cc2F)C(=O)c2ccc3ccccc3n2)n1Cc1ccc(C#N)cc1 [compound 311] | – |
